Data from paper PMC12845261, “Design, Synthesis, and Biological Evaluation of N-Acyl-Hydrazone-Linked Quinazolinone Derivatives with Antioxidant, Antimicrobial, and Anticancer Potential” (Pharmaceuticals, 2025).
≈ marks a conversion by molar mass, not a printed value. Where “and” joins values, the source holds several entries; their conditions need not be identical. Identical values can stand only once. Like-named read-outs stand apart in the source and are kept apart here.

Columns and labels:
C. albicans ATCC 10231 [1] = assay: Quantitative antimicrobial activity, serial binary microdilution (MIC, IC50); format: cell-based; conditions: Candida albicans, ATCC10231, 24 h, 37 °C, DMSO control 1.25
Method: (§1) For the evaluation of antimicrobial activity, the following reference strains were used: S. aureus ATCC 25923, E. faecalis ATCC 29212, E. coli ATCC 25922, P. aeruginosa ATCC 27853 and C. albicans ATCC 10231.
(§2) Quantitative analysis was performed using the method of serial binary microdilutions in liquid medium (Tryptone Soy Broth for bacteria and Sabouraud Broth for yeasts) in plates with 96 wells. Stock solutions of 10 mg/mL were made in DMSO, and the range of concentrations tested for each compound was 5000–0.16 μg/mL. Simultaneously, the DMSO control was carried out under the same working conditions. Each well was inoculated with 10 μL of microbial suspension, adjusted to a density of 1.5 × 10^8 CFU/mL prepared from 18 to 24 h cultures. After 24 h of incubation at 37 °C, microbial growth and multiplication were evaluated both macroscopically and spectrophotometrically at 620 nm to establish the MIC values. […] Blanks were made for each sample concentration, and the formula was applied: Microbial viability(%)=Asample−Ablank/Astrain control−Asterility control·100

P. aeruginosa ATCC 27853 [2] = assay: as above; format: cell-based; conditions: Pseudomonas aeruginosa, ATCC27853, 24 h, 37 °C, DMSO control 1.25
Method: as §1, §2

[3] = Qualitative solubility in solvents; format: physicochemical
Method: The 2–5 mL reaction vials were loaded with a magnetic stirrer, 1 mmol of each reactant, acetohydrazide 2 and benzaldehydes, 4–4.5 mL of anhydrous ethanol and 2 drops of glacial acetic acid. Reaction conditions included 5 min of pre-stirring, followed by 40 min of irradiation at 100 °C, with the absorbance level set to “high”. The vials were left overnight in a refrigerator. The precipitates formed were filtered under vacuum, washed with cold ethanol and dried at room temperature. Thin-layer chromatography was performed to analyze and monitor the reaction. The compounds were confirmed by spectroscopic methods (FT-IR, ^1H-NMR and ^13C-NMR spectroscopy and mass spectrometry) and characterized by melting points, solubility and retention factors (Rf).

[4] = system: A431 (human epidermoid carcinoma); assay: Cytotoxicity, MTT assay; format: cell-based; conditions: for viability at 50 µM / IC50: Homo sapiens; for viability at 50 µM: A-431, 50 µM, compared to the control, read-out: Cell viability; for viability at 50 µM / Cell viability / Cytotoxic effect (in words): 24 h; for IC50: A-431, 24 h, tested range 3.125 to 50 µM; for Cytotoxic effect (in words): 3.125 to 50 µM
Method: (§3) For the cytotoxicity screening of the N-acyl-hydrazone derivatives, three cell lines were employed: HT-29 (human colorectal adenocarcinoma), A431 (human epidermoid carcinoma), and VERO (non-tumoral African green monkey kidney epithelial cells). All cell lines were obtained from the American Type Culture Collection (ATCC, Manassas, VA, USA), and maintained in appropriate culture media as follows: HT-29 and A431 cells were cultured in Dulbecco’s Modified Eagle Medium (DMEM), while VERO cells were cultured in Minimum Essential Medium (MEM). Both culture media were supplemented with 10% fetal bovine serum (FBS) and 1% penicillin-streptomycin mix, to formulate the complete culture medium. All cell lines were incubated at 37 °C in a humidified atmosphere containing 5% CO2. […] For the cytotoxicity screening, cells were seeded into sterile 96-well plates at an initial density of 1 × 10^4 cells/well and allowed to adhere for 24 h. Subsequently, cells were treated with increasing concentrations (3.125 to 50 µM) of compounds 1a–1f and 2 for 24 h. In parallel, 5-fluorouracil (5-FU, Sigma Aldrich, St. Louis, MO, USA) was included as a reference drug and tested over the same concentration range under identical experimental conditions. […] For the experimental control, culture medium was refreshed at the time of treatment application. […] Louis, MO, USA). Briefly, the culture media were discarded from each well and replaced with a fresh solution of MTT (1 mg/mL). Plates were incubated for 4 h at 37 °C, and the resulting formazan crystals were solubilized with isopropanol. The absorbance was measured at 550 nm using the FlexStation III multimodal reader (Molecular Devices, San Jose, CA, USA). All experiments were performed in triplicate and repeated in three independent assays. Cell viability was calculated as a percentage relative to the untreated control using the formula Cell Viability (%) = (Abs treated/Abs control) × 100. Data were processed using GraphPad Prism 6.0 and presented as mean ± standard deviation (SD). Statistical analysis was performed using one-way analysis of variance (ANOVA) followed by Dunnett’s post hoc test for comparison with the untreated control group.

[5] = system: HT-29 (human colorectal adenocarcinoma); assay: Cytotoxicity, MTT assay; format: cell-based; conditions: 24 h; for Cell viability: at corresponding concentrations (comparison with 5-FU), concentration not named; for IC50: tested range 3.125 to 50 µM; for Reduction of cell viability: at 50 µM and 25 µM, compared to the control; for Cytotoxic effect (in words): 3.125 to 50 µM
Method: as §3

C. albicans ATCC 10231 [6] = assay: Microbicidal activity (MMC); format: cell-based; conditions: DMSO control 5
Method: (§4) For the evaluation of antimicrobial activity, the following reference strains were used: S. aureus ATCC 25923, E. faecalis ATCC 29212, E. coli ATCC 25922, P. aeruginosa ATCC 27853 and C. albicans ATCC 10231. To determine the MMCs, 5 μL of culture was taken from each well and distributed on solid medium. The plates were incubated for 20–24 h at 37 °C. The lowest concentration at which no microbial growth was observed was considered MMC.

P. aeruginosa ATCC 27853 [7] = assay: Microbicidal activity (MMC); format: cell-based; conditions: DMSO control 2.5
Method: as §4

S. aureus ATCC 25923 = assay: Microbicidal activity (MMC); format: cell-based; conditions: DMSO control 5
Method: as §4

[8] = Total antioxidant capacity (TAC), DPPH method; conditions: 30 min, 517 nm, compound stock 1 mg/mL in methanol, reference ascorbic acid TAC = 100%
Method: The total antioxidant capacity (TAC) was evaluated using diphenyl-1-picrylhydrazyl free radical (DPPH) method. The TAC value was determined in relation to the antioxidant capacity of the reference (ascorbic acid, TAC = 100%). […] The maximum value was recorded for 1c (~45%), followed by 1f and 1a (~43%), while the minimum for 1e (~19%).
In this study, the TAC values were obtained using the most-known DPPH method, in which the intense violet colour of the free radical solution is decreasing. Stock solutions of compounds 1a–1f and 2 were prepared in absolute methanol at a concentration of 1 mg/mL. A stock solution of 2,2-diphenyl-1-picrylhydrazyl free radical was obtained in the same solvent, at a concentration of 2 × 10^−4 M. To 1.8 mL of DPPH solution was added 0.2 mL of each solution of the compounds 1a–1f and 2 and the mixture was left in the dark for 30 min, followed by measurements of the absorbance at 517 nm. The following equation was used to calculate TAC: TAC%=Abs0 min−Abs30 min/Abs0min·100 where Abs0 min refers to the initial absorbance of the DPPH free radical solution, and Abs 30 min refers to the absorbance of the solution of DPPH and the added compound after 30 min. Ascorbic acid was used as a reference.

E. faecalis ATCC 29212 = assay: Microbicidal activity (MMC); format: cell-based; conditions: DMSO control >5
Method: as §4

| SMILES | MIC (C. albicans ATCC 10231 [1]) [µg/mL] | MIC (P. aeruginosa ATCC 27853 [2]) [µg/mL] | Solubility ([3]; DMF) | Solubility ([3]; DMSO) | Solubility ([3]; acetone) | Solubility ([3]; methanol) | Solubility ([3]; water) | viability at 50 µM [4] [%] | Cell viability [5] | MMC (C. albicans ATCC 10231 [6]) [mg/mL] | MMC (P. aeruginosa ATCC 27853 [7]) [mg/mL] | MMC (S. aureus ATCC 25923) [mg/mL] | TAC (%) [8] | MMC (E. faecalis ATCC 29212) [mg/mL] | Cytotoxic effect (in words) [5] | Cytotoxic effect (in words) [4] | further results |
| --- | --- | --- | --- | --- | --- | --- | --- | --- | --- | --- | --- | --- | --- | --- | --- | --- | --- |
| Cc1nc2ccccc2c(=O)n1CC(=O)N/N=C/c1cc(Br)ccc1O [Compound 1a, N′-[(E)-(5-bromo-2-hydroxyphenyl)methylidene]-2-(2-methyl-4-oxoquinazolin-3(4H)-yl)acetohydrazide] | 625 (≈ 1.51 mM) | 1250 (≈ 3.01 mM) | soluble | soluble | soluble | slightly soluble | insoluble | ~60 | below 50% | 5 | 2.5 | >5 | 42.7% | – | – | – | viability at 50 µM ([5]; Homo sapiens, 50 µM, relative to untreated control, read-out: Cell viability): ~50%; IC50 ([5]; Homo sapiens, read-out: IC50): ~50 µM |
| Cc1nc2ccccc2c(=O)n1CC(=O)N/N=C/c1cc(Br)cc(Br)c1O [Compound 1b, N′-[(E)-(3,5-bromo-2-hydroxyphenyl)methylidene]-2-(2-methyl-4-oxoquinazolin-3(4H)-yl)acetohydrazide] | 625 (≈ 1.26 mM) | 5000 (≈ 10.1 mM) | soluble | soluble | soluble | slightly soluble | insoluble | ~50 | below 50% | 5 | 5 | >5 | 38.9% | >5 | – | – | Solubility ([3]; 2-propanol): slightly soluble; IC50 [4]: ~50 µM; Reduction of cell viability [5]: approximately 50% |
| COc1cccc(/C=N/NC(=O)Cn2c(C)nc3ccccc3c2=O)c1O [Compound 1c, N′-[(E)-(2-hydroxy-3-methoxyphenyl)methylidene]-2-(2-methyl-4-oxoquinazolin-3(4H)-yl)acetohydrazide] | 2500 (≈ 6.82 mM) | 1250 (≈ 3.41 mM) | soluble | soluble | soluble | slightly soluble | insoluble | ~50 | – | 5 | 2.5 | 5 | 45.1% | >5 | potent inhibitory effects at all concentrations tested | – | IC50 [4]: ~50 µM; IC50 [5]: did not produce a viability drop sufficient to determine an IC50 value |
| COc1ccc(/C=N/NC(=O)Cn2c(C)nc3ccccc3c2=O)c(O)c1 [Compound 1d, N′-[(E)-(2-hydroxy-4-methoxyphenyl)methylidene]-2-(2-methyl-4-oxoquinazolin-3(4H)-yl)acetohydrazide] | 5000 (≈ 13.6 mM) | 1250 (≈ 3.41 mM) | soluble | soluble | soluble | slightly soluble | insoluble | – | below 50% | >5 | – | >5 | 19.3% and 20.5% | >5 | – | – | Cell viability ([4]; at 50 µM and 25 µM): below 60%; Reduction of cell viability [5]: approximately 50% |
| COc1ccc(O)c(/C=N/NC(=O)Cn2c(C)nc3ccccc3c2=O)c1 [Compound 1e, N′-[(E)-(2-hydroxy-5-methoxyphenyl)methylidene]-2-(2-methyl-4-oxoquinazolin-3(4H)-yl)acetohydrazide] | 1250 (≈ 3.41 mM) | 5000 (≈ 13.6 mM) | soluble | soluble | – | slightly soluble | insoluble | – | – | – | 5 | 5 | 19.3% | >5 | weaker cytotoxic activity | only mild cytotoxicity | Cell viability ([4]; at all doses (3.125 to 50 µM)): above 70% |
| COc1cc(/C=N/NC(=O)Cn2c(C)nc3ccccc3c2=O)cc([N+](=O)[O-])c1O [Compound 1f, N′-[(E)-(4-hydroxy-3-methoxy-5-nitrophenyl)methylidene]-2-(2-methyl-4-oxoquinazolin-3(4H)-yl)acetohydrazide] | 1250 (≈ 3.04 mM) | 1250 (≈ 3.04 mM) | soluble | soluble | soluble | slightly soluble | insoluble | – | – | 5 | 2.5 | 5 | 43.4% | >5 | no inhibitory effect | did not exert any inhibitory effect | – |
| Cc1nc2ccccc2c(=O)n1CC(=O)NN [Compound 2, 2-(2-methyl-4-oxoquinazolin-3(4H)-yl)acetohydrazide] | 1250 (≈ 5.38 mM) | 1250 (≈ 5.38 mM) | – | – | – | – | – | – | – | 5 | 5 | >5 | 19.7% | >5 | overall increase in cell viability at all tested concentrations | no cytotoxic activity | – |
